Consider 25 compounds from patent US20080039442A1, “Compounds With Kv4 Ion Channel Activity” (Devgen NV, priority 2004, published 2008).

Read-outs that look alike come from different tables or passages of the source.

In series [1] the target is T1, human Kv4.3/KChIP2.2 potassium channel (Homo sapiens, UniProt Q9UK17).
T1 construct: expressed in transfected cells
T1 sequence (Q9UK17 1-655): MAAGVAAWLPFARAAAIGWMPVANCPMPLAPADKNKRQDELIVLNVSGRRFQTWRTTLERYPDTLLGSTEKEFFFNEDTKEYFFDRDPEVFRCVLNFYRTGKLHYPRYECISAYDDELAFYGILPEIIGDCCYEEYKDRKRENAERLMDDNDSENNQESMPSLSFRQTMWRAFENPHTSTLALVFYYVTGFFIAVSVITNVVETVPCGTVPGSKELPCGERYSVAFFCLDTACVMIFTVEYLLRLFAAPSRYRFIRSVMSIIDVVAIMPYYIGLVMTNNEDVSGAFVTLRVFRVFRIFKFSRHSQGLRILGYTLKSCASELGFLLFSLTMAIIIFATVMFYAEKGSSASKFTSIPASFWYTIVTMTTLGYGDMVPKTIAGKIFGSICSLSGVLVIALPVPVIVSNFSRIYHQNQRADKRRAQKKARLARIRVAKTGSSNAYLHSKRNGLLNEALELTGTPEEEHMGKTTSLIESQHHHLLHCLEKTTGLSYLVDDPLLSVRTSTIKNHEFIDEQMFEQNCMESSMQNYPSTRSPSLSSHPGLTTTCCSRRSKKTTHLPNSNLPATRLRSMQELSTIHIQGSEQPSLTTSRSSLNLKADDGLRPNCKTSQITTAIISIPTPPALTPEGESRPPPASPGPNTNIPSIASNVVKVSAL
T1 sequence (Q9NS61 1-270 partner): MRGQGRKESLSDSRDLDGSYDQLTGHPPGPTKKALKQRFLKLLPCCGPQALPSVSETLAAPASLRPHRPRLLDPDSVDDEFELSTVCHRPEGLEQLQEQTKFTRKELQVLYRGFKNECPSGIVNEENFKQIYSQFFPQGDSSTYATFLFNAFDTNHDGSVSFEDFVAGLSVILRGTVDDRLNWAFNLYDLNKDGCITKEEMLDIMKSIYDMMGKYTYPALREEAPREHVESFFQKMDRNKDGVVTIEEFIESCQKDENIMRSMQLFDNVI
Kind of series: Whole cell patch clamp, CHO-K1 cells stably expressing Kv4.3/KChIP2.2. The class given is cell-based. Conditions: CHO-K1, 1 μM. The protocol:
For this experiment, a recombinant CHO-K1 cell line stably expressing the human Kv4.3/KChIP2.2 potassium channel was used.
Protocol B: The cells were cultured in 94 mm culture dishes under the culturing conditions of 5% CO2 and 37° C. Subculturing was performed every 3-4 days, by removing the media and then rising the dish with 8 ml PBS (phosphate buffered saline). The PBS was removed and 1 ml Trypsin/EDTA was added to the cells. The cells were incubated about 2 min at 37° C. or 5 min at room temperature and then the dish was rapped to detach and singularize the cells. To inactivate the enzyme 9 ml of media was added and the solution was pipetted up and down to break up clumps of cells. Part of the suspension was then transferred to a new 94 mm dish and media was added to a final volume of 8 ml. If necessary the cells could be seeded onto 35 mm or 94 mm dishes (2 ml media per 35 mm dish and 8 ml media per 94 mm dish). The media was changed every 2-3 days. The media used was the solution for culturing the cells described above. For stable cells antibiotic G418, Hygromycin, Blasticidin, or Zeocin were not added.
The preparation of cells for electrophysiological experiments was performed as described in protocol C hereunder.
Protocol C: The transfected cells and stable cells were transferred from 35 mm cell culture dishes onto coverslips using cold PBS: The media was removed and 0.3 ml of PBS (4-10° C.) was added. The cells were incubated 5 min at room temperature. The dish was rapped to detach and singularize the cells and 1.7 ml media was added and the solution pipetted up and down to break up clumps of cells. Part of the cell suspension was then transferred to a 35 mm dish with coverslips and media. The transfected cells and stable cells could also be transferred from 35 mm cell culture dishes onto coverslips using trypsin: The media was removed and the dish rinsed with 3 ml PBS. The PBS was removed and 0.3 ml 1× Trypsin/EDTA was added and the cells incubated 5 min at room temperature. The dish was rapped to detach and singularize the cells and 1.7 ml media was added and the solution pipetted up and down to break up clumps of cells. Part of the cell suspension was then transferred to a 35 mm dish with coverslips and media.
10 mM stock solutions of the compounds were prepared in DMSO. Solutions of the compounds were prepared by dilution of stock solution in bath solution. If the required stock solution volume was theoretically below 1 μl, bath solutions with higher compound concentration were used for dilution. The maximal DMSO concentration during experiments was 0.1% (v/v).
For patch clamp experiments, the following solutions in demineralized water as vehicle were used (concentration in mM).
Bath (external) solution: 4 KCl, 135 NaCl, 2 CaCl2, 1 MgCl2, 10 D(+)-Glucose, 5 HEPES, pH 7.4 (NaOH).
Pipette (internal) solution: 130 KCl, 1 MgCl2, 10 EGTA, 5 Na2ATP, 5 HEPES, pH 7.4 (KOH).
Experiments were performed using a patch clamp set-up.
Measurements were performed at room temperature (20-25° C.). […] Each cell acted as its own control. The effect of compounds on Kv4.3/KChIP2.2 mediated currents was investigated at one concentration ([…]) with two replicates each (c=1, n=2).
The test protocols are illustrated in FIG. 1 and Table 4. […] Each test protocol consisted of 4 segments.
Subsequently, 14 test pulses (series 1; FIG. 1b and Table 4b) were applied at 0.1 Hz under constant superfusion with bath solution. The protocol was initiated by a voltage jump to −100 mV (400 ms) to achieve full inactivation. Then the Kv4.3/KChIP2.2 channels were transferred to the open state by depolarization to +40 mV for 300 milliseconds (activation). Only cells generating current amplitudes between 1 nA and 50 nA were used for the experimental procedure. No or negligible rundown was observed.
Then, 36 test pulses (series 2) were applied at 0.1 Hz under constant superfusion with the compound dissolved in bath solution. […]

Setting [2] is: read-out: Kv4.3 charge in %: remaining current measured after application of the compound and relative to the blank.
The mark [3] stands for this setting: read-out: Kv4.3 peak in %: remaining peak height measured after application of the compound and relative to the blank.

On to `COc1ccc(CNC(=O)c2cc3ccccc3s2)c(OC)c1` [Compound 32, benzo[b]thiophene-2-carboxylic acid 2,4-dimethoxy-benzylamide], for which the melting point was 134.4 to 135.3 °C. For the same compound, the remaining activity at 1 µM in series [1] (setting [2]) is 75%. Moreover, in series [1] (setting [3]), the remaining activity at 1 µM amounted to 100%.

`O=C(NCc1ccc(-c2cccs2)cc1)c1cc2cc(Cl)ccc2o1` [Compound 34, 5-chloro-benzofuran-2-carboxylic acid 4-thiophen-2-yl-benzylamide] came in with a melting point of 173.5 to 175 °C. Moreover, in series [1] (setting [2]), the remaining activity at 1 µM amounted to 90%. Moreover, the remaining activity at 1 µM in series [1] (setting [3]) was 98%.

Consider `COc1ccc(CC(=O)Nc2cc3ccccc3o2)c(OC)c1` [Compound 22, N-benzofuran-2-yl-2-(2,4-dimethoxy-phenyl)-acetamide], for which the melting point was in the range of 126.4 to 128.2 °C. Moreover, the remaining activity at 1 µM in series [1] (setting [2]) was 90%. For the same compound, the remaining activity at 1 µM in series [1] (setting [3]) is 100%.

Consider `COc1ccc(CNC(=O)c2oc3ccc(Cl)cc3c2NC(C)=O)c(OC)c1` [Compound 115, 3-acetylamino-5-chloro-benzofuran-2-carboxylic acid 2,4-dimethoxy-benzylamide], for which the melting point lay in the range of 165.5 to 170.3 °C.

`O=C(c1ccc(F)cc1)C1CCN(C(=O)c2cc3cc(Cl)ccc3o2)CC1` [Compound 102] came in with a melting point of 135 to 137.1 °C. Still for that read-out and setting: in the case of `O=C(NCC1COc2ccccc2O1)c1cc2cc(Cl)ccc2o1` (stereo not shown) [Compound 113, 5-chloro-benzofuran-2-carboxylic acid (2,3-dihydro-benzo[1,4]dioxin-2-ylmethyl)-amide] it was 121.1 to 124.3 °C. Still for that read-out and setting: next, `Cc1ccccc1CNC(=O)c1cc2cc(Cl)ccc2o1` [Compound 69, 5-chloro-benzofuran-2-carboxylic acid 2-methyl-benzylamide]: 141.8 to 143 °C; `Cc1ccc(C)c(CNC(=O)c2cc3cc(Cl)ccc3o2)c1` [Compound 90, 5-chloro-benzofuran-2-carboxylic acid 2,5-dimethyl-benzylamide]: 123.1 to 124 °C. In the case of `COC(=O)c1cccc(CNC(=O)c2cc3cc(Cl)ccc3o2)c1` [Compound 65, 5-{[(5-chloro-benofuran-2-carbonyl)-amino]-methyl}-benzoic acid methyl ester], the melting point is 154 to 155.6 °C.

`O=C(NCc1ccccc1OC(F)(F)F)c1cc2cc(Cl)ccc2o1` [Compound 87, 5-chloro-benzofuran-2-carboxylic acid 2-trifluoromethoxy-benzylamide] yielded a melting point of 125.8 to 127.9 °C.

In turn, `O=C(c1cc2cc(Cl)ccc2o1)N1CCCC1c1ccc(F)cc1` (stereo not shown) [Compound 104, (5-chloro-benzofuran-2-yl)-[2-(4-fluoro-phenyl)-pyrrolidin-1-yl]-methanone] yielded a melting point of 104.4 to 106.1 °C. Still for that read-out and setting: in the case of `O=C(NCc1ccc(Oc2ccccc2)cc1)c1cc2cc(Cl)ccc2o1` [Compound 68, 5-chloro-benzofuran-2-carboxylic acid 4-phenoxy-benzylamide] it was 93.6 to 95.5 °C; in that of `CSc1ccc(CNC(=O)c2cc3cc(Cl)ccc3o2)cc1` [Compound 61, 5-chloro-benzofuran-2-carboxylic acid 4-methylsulfanyl-benzylamide], 159 to 161 °C. `COc1ccc(CNC(=O)c2cn(Cc3ccccc3)c3ccccc23)c(OC)c1` displayed a melting point of 118.8 to 120.4 °C.

Compound `O=C(NCc1cccc(-c2ccccc2)c1)c1cc2cc(Cl)ccc2o1` [Compound 73, 5-chloro-benzofuran-2-carboxylic acid (biphenyl-3-ylmethyl)-amide] displayed a melting point of 130.4 to 131 °C. Same read-out and setting: in the case of `Cc1cccc(Cl)c1CNC(=O)c1sc2ccc(Cl)cc2c1C` [Compound 110, 5-chloro-3-methyl-benzo[b]thiophene-2-carboxylic acid 2-chloro-6-methyl-benzylamide] it was 180.5 to 182 °C; in that of `O=C(NCc1cccc(OC(F)(F)F)c1)c1cc2cc(Cl)ccc2o1` [Compound 88, 5-chloro-benzofuran-2-carboxylic acid 3-trifluoromethoxy-benzylamide], 133.5 to 137.9 °C; in that of `N#Cc1ccc(CNC(=O)c2cc3cc(Cl)ccc3o2)cc1` [Compound 80, 5-chloro-benzofuran-2-carboxylic acid 4-cyano-benzylamide], 226.6 to 230.4 °C. With `O=C(NCc1ccc(-c2cnns2)cc1)c1cc2cc(Cl)ccc2o1` [Compound 91, 5-chloro-benzofuran-2-carboxylic acid 4-[1,2,3]thiadiazol-5-yl-benzylamide], the melting point lay within 178.1 to 181.8 °C.

Regarding `Cc1cccc(CNC(=O)c2cc3cc(Cl)ccc3o2)c1` [Compound 70, 5-chloro-benzofuran-2-carboxylic acid 3-methyl-benzylamide], the melting point lay in the range of 148.4 to 149.4 °C. The compound `CC[C@@H](NC(=O)c1cc2cc(Cl)ccc2o1)c1ccccc1` [Compound 58, 5-chloro-benzofuran-2-carboxylic acid ((R)-1-phenyl-propyl)-amide] yielded a melting point of 118.5 to 120.7 °C. Still for that read-out and setting: next, `COc1ccc(CNC(=O)c2ccc3ccccc3n2)c(OC)c1` [Compound 112, quinolin-2-carboxylic acid 2,4-dimethoxy-benzylamide]: 93.9 to 95.4 °C; `Cc1c(C(=O)NCc2ccc(OC(F)(F)F)cc2)sc2ccc(Cl)cc12` [Compound 117]: 159.2 to 162.4 °C; `Cc1cc(Cl)cc(Cl)c1CNC(=O)c1cc2cc(Cl)ccc2o1` [Compound 119, 5-chloro-benzofuran-2-carboxylic acid 2,4-dichloro-6-methyl-benzylamide]: 210 to 212 °C. On to `CN(C)C(=O)c1cccc(CNC(=O)c2cc3cc(Cl)ccc3o2)c1` [Compound 66, 5-chloro-benzofuran-2-carboxylic acid 3-dimethylcarbamoyl-benzylamide], for which the melting point was in the range of 105.1 to 109.4 °C.

A word on the melting point: it is the temperature, or range, at which the solid turns liquid.
